“And” between values parts separate entries of the source, which are not always exact repeats. Equal entries are not always repeated.
Legend:
blood sugar level = test: Blood sugar level in men before and after testosterone olfaction; type: in vivo
Experimental: To evaluate the possible role of testosterone in blood sugar reduction in diabetes type 2, the following protocol was designed.
Ten men between the ages of 30 to 90 volunteered to participate in this study as subjects. Approximately one and a half hours after having a meal the subject came to Applicant's office. Prior to the testosterone olfaction the blood sugar level was measured.
The subject produced an adequately sized drop of blood from a finger using a lancing device. The blood sugar was measured with a Contour Blood Glucose Monitoring System, Model 9546 C, Serial Number FB00450. The drop of blood was picked up by a Contour blood glucose test strip 7097C specific for the instrument and within the usable date range. This value was recorded as mg/dL.
A drop of pure testosterone diluted 1:1000 in ethanol was sprayed onto the palm of the hand and smelled by the subject. […] This concentration more efficient than the undiluted hormone.
A second blood drop was immediately taken and measured and recorded in the same manner as described above.

[1] = tested on: free testosterone production; test: Testosterone production after olfaction of testosterone or truffle extract; type: in vivo; settings: olfaction of pure testosterone; unpublished research
From the text: Olfaction, the sense of smell, is critical for the survival of almost all creatures. Humans are able to distinguish over 10,000 different odor molecules. With every inhalation, currents of air swirl through the nostrils over the bony turbinates in the nose that contain receptors in the olfactory epithelium. Olfactory mucosa protects the olfactory epithelium and allows odors to dissolve for detection by olfactory receptors. The cilia projecting from the olfactory knob contain receptors for odorants. The cilia project from the knob directly into the […]. The interaction of the right molecule with the right receptor causes a structural transformation of the receptor, which gives rise to an electrical signal to the olfactory bulb and thence to the areas in the limbic brain that perceive it as the original smell.
(§1) These studies raised the question: is this action by olfaction unique to testosterone or can the effect be observed with other hormones? To answer this question, Applicant studied progesterone olfaction in 10 postmenopausal women. Progesterone is the primary female sex hormone and testosterone is the primary male sex hormone. […] This is a ground-breaking discovery: smelling the hormones that have been tested caused the body to produce the hormone that is smelled. However, it is still unknown whether hormone olfaction will work with hormones other than sex hormones.

insulin resistance = settings: type 2 diabetic men with low testosterone, weekly injections for 24 weeks; cited from earlier work
progesterone production = test: Progesterone olfaction in postmenopausal women; type: in vivo; settings: 10 postmenopausal women; unpublished studies
From the text: as §1

| SMILES | percent reduction of sugar level, average for all ten (blood sugar level; average of ten subjects, after testosterone olfaction) | PERCENT CHANGE of blood sugar (blood sugar level; individual subject, before vs after olfaction of testosterone 1:1000 in ethanol) | blood sugar AFTER OLFACTION (blood sugar level; individual subject, measured immediately after smelling testosterone diluted 1:1000 in ethanol, about 1.5 h after a meal, finger blood) | effect of other concentrations compared with 1:1000 dilution (blood sugar level; prior studies, other concentrations of testosterone) | effect on blood sugar level (blood sugar level; testosterone olfaction used alone, ten men) | time in which olfaction lowers blood sugar (blood sugar level; time to lance the finger, collect the blood and test) | testosterone production after olfaction [1] | ability to utilize insulin (insulin resistance) | progesterone production after olfaction (progesterone production) |
| --- | --- | --- | --- | --- | --- | --- | --- | --- | --- |
| C[C@]12CC[C@H]3[C@@H](CCC4=CC(=O)CC[C@@]43C)[C@@H]1CC[C@@H]2O [testosterone] | 36% | 56% and 30% (2×) and 38% and 19% and 17% and 34% and 70% and 53% and 12% | 86 mg/dL (2×) and 99 mg/dL (2×) and 109 mg/dL and 107 mg/dL and 130 mg/dL and 158 mg/dL and 98 mg/dL and 92 mg/dL | essentially the same effect | lowers the blood sugar level | about 30 seconds | does initiate testosterone production | improved | – |
| CC(=O)[C@H]1CC[C@H]2[C@@H]3CCC4=CC(=O)CC[C@]4(C)[C@H]3CC[C@]12C [progesterone] | – | – | – | – | – | – | – | – | does initiate production of progesterone |

From patent US10413556B1, “Production of insulin by testosterone olfaction” (priority 2019, dated 2019)
